Patent US12297192B2, “Crystal form of pyrimidine sulfonamide compound and preparation method therefor” (WUXI BIOCITY BIOPHARMACEUTICS CO., LTD., priority 2019, dated 2025)

What was measured:
[1] = Solid stability test for Crystal Form A (high temperature, high humidity, strong light, accelerated conditions); assay type: physicochemical
From the text: See Table 3 below for chromatographic conditions for the HPLC method of solid stability testing:
According to the Guideline for Stability Testing of APIs and Formulations (Chinese Pharmacopoeia 2015 Edition, Volume IV, General Principles 9001).
After being placed under high temperature and high humidity conditions, samples were placed in a desiccator for examination. On the 5th, 10th and 30th days, samples were taken for testing, and the results were compared with the initial test results on day 0. Samples placed under strong light condition were covered with a transparent lid and sealed with a sealing film and samples were taken on the 5th and 10th for testing and the results were compared to the initial test results on day 0. […] Each aliquot was placed in a double-layer LDPE bag. Each layer of LDPE bag was sealed by tying, respectively. Then the LDPE bag was placed in an aluminum foil bag and heat sealed and placed at 25° C./60% relative humidity. Samples were taken at the 3th month, 6th month, 9th month and 12th month, and placed under 40° C./75% relative humidity. Samples were taken at the 1st month, 2^ed month, 3th month and 6th month, respectively. The test results were compared with the initial test results on day 0.

[2] = Pharmacokinetic evaluation in rats; assay type: in vivo, SD rats
Description: The animals used in this study were SD male rats. The LC/MS/MS method was applied to quantify the plasma drug concentrations in rats at different time points after administration of the test compound intravenously or orally by gavage in order to evaluate the pharmacokinetic characteristics of the test compound in rats.
Sprague Dawley (SD) rats (male, 200-300 g, 7-10 weeks old, Beijing Vital River or Shanghai SLAC).
A clear solution of the test compound was administered to SD rats by tail vein injection (overnight fasting) or oral gavage (overnight fasting). At 0 hour (before administration through tail vein injection) and 0.0833, 0.25, 0.5, 1, 2, 4, 6, 8 and 24 hours after administration through tail vein injection, 200 μL of blood was collected by jugular venipuncture into anticoagulation tubes supplemented with EDTA-K2 (Jiangsu Kangjian Medical Supplies Co., Ltd.). The mixture in the anticoagulation tube was vortexed thoroughly at 4° C. and then centrifuged at 13,000 rpm for 10 minutes to obtain the plasma. At 0 hours (before administration by oral gavage) and 0.5, 1, 2, 4, 6, 8 and 24 hours after administration by oral gavage, 200 μL of blood was collected by jugular venipuncture into anticoagulation tubes supplemented with EDTA-K2 (Jiangsu Kangjian Medical Supplies Co., Ltd.). The mixture in the anticoagulation tube was vortexed thoroughly and the plasma was then centrifuged at 13,000 rpm for 10 minutes to obtain the plasma. Blood concentrations were determined by LC/MS/MS and the relevant pharmacokinetic parameters were calculated using WinNonlin™ Version 6.3 (Pharsight, Mountain View, CA) pharmacokinetics software with a non-compartmental model linear-log trapezoidal method.

[3] = 25° C./60% relative humidity, sealed, 3 months
[4] = 25° C./60% relative humidity, sealed, 6 months
[5] = 25° C./60% relative humidity, sealed, 9 months
[6] = 25° C./60% relative humidity, sealed, 12 months
[7] = 40° C., 75% relative humidity, sealed, 1 month
[8] = 40° C., 75% relative humidity, sealed, 2 months
[9] = 40° C., 75% relative humidity, sealed, 3 months
[10] = 40° C., 75% relative humidity, sealed, 6 months
[11] = High humidity (room temperature/92.5% relative humidity, open), 5 days
[12] = High humidity (room temperature/92.5% relative humidity, open), 10 days
[13] = High humidity (room temperature/92.5% relative humidity, open), 30 days
[14] = High temperature (60° C., open), 5 days
[15] = High temperature (60° C., open), 10 days
[16] = High temperature (60° C., open), 30 days
[17] = Strong light (4500 ± 500 lux-hr, 90 μw-hr/cm^2, sealed), 5 days
[18] = Strong light (4500 ± 500 lux-hr, 90 μw-hr/cm^2, sealed), 10 days

COCCNS(=O)(=O)Nc1ncnc(OCCOc2ncc(Br)cn2)c1-c1ccc2c(c1)OCO2
Appearance ([1]; 0 day (initial)): White powder
Crystal Form ([1]; 0 day (initial)): Crystal Form A
Crystal Form A of the compound of formula (I) (%) ([1]; 0 day (initial)): 99.2%
Total impurities (%) ([1]; 0 day (initial)): 0.26%
Appearance [1, 3]: White powder
Crystal Form [1, 3]: Crystal Form A
Crystal Form A of the compound of formula (I) (%) [1, 3]: 100.2%
Total impurities (%) [1, 3]: 0.13%
Appearance [1, 4]: White powder
Crystal Form [1, 4]: Crystal Form A
Crystal Form A of the compound of formula (I) (%) [1, 4]: 100.1%
Total impurities (%) [1, 4]: 0.20%
Appearance [1, 5]: White powder
Crystal Form A of the compound of formula (I) (%) [1, 5]: 100.0%
Total impurities (%) [1, 5]: 0.13%
Appearance [1, 6]: White powder
Crystal Form A of the compound of formula (I) (%) [1, 6]: 100.1%
Total impurities (%) [1, 6]: 0.16%
Appearance [1, 7]: White powder
Crystal Form A of the compound of formula (I) (%) [1, 7]: 99.2%
Total impurities (%) [1, 7]: 0.14%
Appearance [1, 8]: White powder
Crystal Form A of the compound of formula (I) (%) [1, 8]: 99.3%
Total impurities (%) [1, 8]: 0.14%
Appearance [1, 9]: White powder
Crystal Form [1, 9]: Crystal Form A
Crystal Form A of the compound of formula (I) (%) [1, 9]: 100.6%
Total impurities (%) [1, 9]: 0.13%
Appearance [1, 10]: White powder
Crystal Form [1, 10]: Crystal Form A
Crystal Form A of the compound of formula (I) (%) [1, 10]: 100.2%
Total impurities (%) [1, 10]: 0.20%
Appearance [1, 11]: White powder
Crystal Form A of the compound of formula (I) (%) [1, 11]: 99.7%
Total impurities (%) [1, 11]: 0.30%
Appearance [1, 12]: White powder
Crystal Form A of the compound of formula (I) (%) [1, 12]: 99.5%
Total impurities (%) [1, 12]: 0.31%
Appearance [1, 13]: White powder
Crystal Form A of the compound of formula (I) (%) [1, 13]: 99.5%
Total impurities (%) [1, 13]: 0.15%
Appearance [1, 14]: White powder
Crystal Form A of the compound of formula (I) (%) [1, 14]: 100.1%
Total impurities (%) [1, 14]: 0.30%
Appearance [1, 15]: White powder
Crystal Form A of the compound of formula (I) (%) [1, 15]: 100.0%
Total impurities (%) [1, 15]: 0.31%
Appearance [1, 16]: White powder
Crystal Form A of the compound of formula (I) (%) [1, 16]: 99.1%
Total impurities (%) [1, 16]: 0.14%
Appearance [1, 17]: White powder
Crystal Form A of the compound of formula (I) (%) [1, 17]: 99.7%
Total impurities (%) [1, 17]: 0.29%
Appearance [1, 18]: White powder
Crystal Form A of the compound of formula (I) (%) [1, 18]: 99.6%
Total impurities (%) [1, 18]: 0.30%
Solid stability (conclusion in words) ([1]; high temperature, high humidity or strong light condition): good stability

COCCNS(=O)(=O)Nc1ncnc(OCCOc2ncc(Br)cn2)c1-c1ccc2c(c1)OCO2 [Compound of formula (I)]
Area under the drug concentration-time curve ([2]; intravenous injection 2 mg/kg): 16.09 µM·h
Plasma clearance ([2]; intravenous injection 2 mg/kg, 2 mg/kg): 3.71 mL/min/kg
Area under the drug concentration-time curve ([2]; oral 10 mg/kg): 60.22 µM·h
Peak concentration ([2]; oral 10 mg/kg): 31.99 µM
Peak time ([2]; oral 10 mg/kg): 0.25 h
Bioavailability ([2]; oral 10 mg/kg, 10 mg/kg): 74.9%
